Article PMC12040169 (PLOS Biology, 2025)

Experiment: in vitro
Details: human, hela cells, % viability

| SMILES | viability at 28.5 h, 10 µM |
| --- | --- |
| CNC(=O)C1(Cc2ccc(-c3cccc(C)c3)cc2)CCN(C(=O)C(C)(C)C)CC1 [CBK285755] | 98.6% |
| Cc1cccc(-c2ccc(CC3(C(=O)NC(C)C)CCN(C(=O)C(C)C)CC3)cc2)c1 [CBK285756] | 99.8% |
| COCC(=O)N1CCC(Cc2ccc(-c3cccc(C)c3)cc2)(C(=O)NC(C)C)CC1 [CBK285759] | 93.6% |
| CCCC(=O)N1CCC(Cc2ccc(-c3cccc(C)c3)cc2)(C(=O)NC(C)C)CC1 [CBK285760] | 93.9% |
| CNC(=O)C1(Cc2ccc(-c3ccccc3)cc2)CCN(C(=O)c2ccccc2)CC1 [CBK285761] | 96.5% |
| CNC(=O)C1(Cc2ccc(-c3ccccc3)cc2)CCN(C(=O)C2CCCCC2)CC1 [CBK285762] | 113% |
| CNC(=O)C1(Cc2ccc(-c3ccccc3)cc2)CCN(C(=O)c2ccccc2OC)CC1 [CBK285767] | 85.9% |
| CNC(=O)C1(Cc2ccc(-c3ccccc3)cc2)CCN(C(=O)Cc2ccc(C)cc2)CC1 [CBK285769] | 90.4% |
| NC(=O)C1(Cc2ccc(-c3ccccc3)cc2)CCN(C(=O)CCc2ccccc2)CC1 [CBK285772] | 102% |
| NC(=O)C1(Cc2ccc(-c3ccccc3)cc2)CCN(C(=O)COc2ccccc2)CC1 [CBK285773] | 95.9% |
| COc1ccccc1C(=O)N1CCC(Cc2ccc(-c3ccccc3)cc2)(C(N)=O)CC1 [CBK285774] | 100% |
| CCOc1ccccc1C(=O)N1CCC(Cc2ccc(-c3ccccc3)cc2)(C(N)=O)CC1 [CBK285775] | 97% |
| COc1cccc(CC(=O)N2CCC(Cc3ccc(-c4ccccc4)cc3)(C(N)=O)CC2)c1 [CBK285776] | 94.2% |
| COc1ccccc1CC(=O)N1CCC(Cc2ccc(-c3ccccc3)cc2)(C(N)=O)CC1 [CBK285777] | 95.4% |
| COc1cccc(C(=O)N2CCC(Cc3cccc(-c4cccs4)c3)(C(N)=O)CC2)c1 [CBK285781] | 97.8% |
| NC(=O)C1(Cc2cccc(-c3cccs3)c2)CCN(C(=O)Cc2cccc(F)c2)CC1 [CBK285783] | 98% |

| SMILES | viability at 28.5 h, 10 µM |
| --- | --- |
| CN(C)C(=O)C1(Cc2ccc(-c3cccs3)cc2)CCN(C(=O)Cc2ccccc2)CC1 [CBK285784] | 93.2% |
| CCNC(=O)C1(Cc2ccc(-c3ccncc3)cc2)CCN(C(=O)CC2CCCCC2)CC1 [CBK285785] | 89.8% |
| CCCC(=O)N1CCC(Cc2ccc(-c3cccc(C)c3)cc2)(C(=O)NC)CC1 [CBK285786] | 104% |
| CNC(=O)C1(Cc2ccc(-c3cccc(C)c3)cc2)CCN(C(=O)CC(C)C)CC1 [CBK285787] | 116% |
| NC(=O)C1(Cc2ccc(-c3ccccc3)cc2)CCN(C(=O)c2ccccc2)CC1 [CBK285789] | 95.1% |
| COc1ccccc1C(=O)N1CCC(Cc2ccc(-c3cccc(C)c3)cc2)(C(N)=O)CC1 [CBK285792] | 89.8% |
| CNC(=O)C1(Cc2ccc(-c3cccs3)cc2)CCN(C(=O)C2CCCCC2)CC1 [CBK285793] | 88% |
| CCNC(=O)C1(Cc2ccc(-c3cccs3)cc2)CCN(C(=O)c2ccccc2)CC1 [CBK285794] | 94.5% |
| Cc1cccc(-c2ccc(CC3(C(N)=O)CCN(C(=O)CCc4ccccc4)CC3)cc2)c1 [CBK285796] | 110% |
| Cc1cccc(-c2ccc(CC3(C(N)=O)CCN(C(=O)COc4ccccc4)CC3)cc2)c1 [CBK285797] | 93.6% |
| Cc1[nH]c2cccc(C(=O)N3CCOC(C)(C(=O)NC4CCCC4)C3)c2c1C (stereo not shown) [CBK285800] | 87.3% |
| Cc1ccc2[nH]c(Cc3ccc(NC(=O)CCc4nc5ccccc5[nH]4)cc3)nc2c1 [CBK285801] | 87% |
| Cc1ccc2[nH]c(Cc3ccc(NC(=O)c4nc5ccccc5n(C)c4=O)cc3)nc2c1 [CBK285802] | 83.8% |
| COc1ccc(OC)c(C(=O)N2CCNC(=O)C2Cc2ccc(-c3cccs3)cc2)c1 (stereo not shown) [CBK285803] | 111% |
| CCN1CCN(C(=O)Cc2ccc(OC)cc2)C(Cc2ccc(-c3ccncc3)cc2)C1=O (stereo not shown) [CBK285804] | 106% |
